Data as given in patent US20210122730A1, “GLUCOCORTICOID RECEPTOR MODULATORS” (ORIC Pharmaceuticals, Inc., priority 2017, published 2021).

Tests used:
[1] = biological target: T1, GR (Homo sapiens, UniProt P04150); test: In Vitro GR Luciferase Reporter Assay (antagonist mode, CHO-K1-GR-MMTV-Luc reporter cells); assay type: cell-based; conditions: antagonist mode, 10 nM Dexamethasone
T1 construct: expressed in transfected cells; host or cells: CHO-K1
T1 sequence (P04150 1-777): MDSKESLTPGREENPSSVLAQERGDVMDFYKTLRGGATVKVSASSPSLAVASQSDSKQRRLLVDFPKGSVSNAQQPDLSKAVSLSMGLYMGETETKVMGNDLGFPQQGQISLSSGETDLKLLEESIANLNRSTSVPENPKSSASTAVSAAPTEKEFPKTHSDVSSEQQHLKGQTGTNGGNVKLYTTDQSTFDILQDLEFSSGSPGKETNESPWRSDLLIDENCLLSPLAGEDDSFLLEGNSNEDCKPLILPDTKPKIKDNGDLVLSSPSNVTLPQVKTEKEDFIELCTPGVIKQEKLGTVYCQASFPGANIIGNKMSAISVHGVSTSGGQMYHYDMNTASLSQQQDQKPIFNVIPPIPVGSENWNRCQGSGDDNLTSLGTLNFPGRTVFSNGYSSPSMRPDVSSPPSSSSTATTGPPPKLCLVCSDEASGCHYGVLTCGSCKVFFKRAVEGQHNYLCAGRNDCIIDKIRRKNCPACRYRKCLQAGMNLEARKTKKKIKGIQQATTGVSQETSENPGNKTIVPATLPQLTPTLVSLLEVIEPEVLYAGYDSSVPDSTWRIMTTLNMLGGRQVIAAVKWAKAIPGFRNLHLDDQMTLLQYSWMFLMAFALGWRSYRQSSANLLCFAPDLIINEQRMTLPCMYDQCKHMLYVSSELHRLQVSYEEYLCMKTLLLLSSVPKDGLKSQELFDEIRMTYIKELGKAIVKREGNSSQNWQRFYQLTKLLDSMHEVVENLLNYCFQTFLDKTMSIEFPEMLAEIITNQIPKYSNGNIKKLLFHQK
Procedure, shortened: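 Antagonist mode: compounds (8 serial 1:5 dilutions) added to GR-MMTV-luciferase CHO-K1 reporter cells co-exposed to 10 nM dexamethasone final, in phenol red-free DMEM plus 10% CSS. After roughly 18-24 h at 37° C, OneGlo luminescence read and IC50 calculated.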

[2] = biological target: T2, CYP2C8 (Homo sapiens, UniProt P10632); test: CYP Inhibition Assay (CYP2C8, human liver microsomes, paclitaxel substrate); assay type: in vitro ADME; conditions: pH 7.4; pooled human liver microsomes 0.1 mg/mL, probe substrate paclitaxel
T2 construct: Pooled human microsomes were obtained from Sekisui XenoTech, KS; tissue Sekisui XenoTech, KS; host or cells: pooled human liver microsomes
T2 sequence (P10632 1-490): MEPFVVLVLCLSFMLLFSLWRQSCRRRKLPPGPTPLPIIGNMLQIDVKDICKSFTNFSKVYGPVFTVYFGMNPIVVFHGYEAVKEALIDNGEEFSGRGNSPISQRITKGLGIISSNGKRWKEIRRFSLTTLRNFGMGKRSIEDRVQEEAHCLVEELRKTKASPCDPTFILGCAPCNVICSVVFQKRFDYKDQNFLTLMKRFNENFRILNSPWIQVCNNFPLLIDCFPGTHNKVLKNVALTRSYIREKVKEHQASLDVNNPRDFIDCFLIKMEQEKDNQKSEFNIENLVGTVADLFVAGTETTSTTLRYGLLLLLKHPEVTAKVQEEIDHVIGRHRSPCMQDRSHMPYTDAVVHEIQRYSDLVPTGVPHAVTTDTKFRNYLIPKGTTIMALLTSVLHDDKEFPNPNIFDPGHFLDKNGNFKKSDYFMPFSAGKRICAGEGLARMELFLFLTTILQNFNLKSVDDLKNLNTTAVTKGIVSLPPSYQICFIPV
Procedure: Example B: CYP Inhibition Assay
Objective: To assess the % inhibition of test compounds against CYP2C8 enzyme in human liver microsomes.
Pooled human microsomes were obtained from Sekisui XenoTech, KS, and were used for in vitro assessment of compound inhibitory potential of the major drug metabolizing human CYP enzymes.
Test compounds were dissolved in DMSO as 10 mM stock solutions and diluted to 200 µM in acetonitrile as working solutions. The total concentrations of DMSO and acetonitrile were 0.02% and 0.5%, respectively, in the assay.
The assay was performed in duplicate in a 96-well plate. The reaction mixture ([…]) containing a final concentration of 0.1 mg/mL pooled human liver microsomes, 50 mM potassium phosphate, pH 7.4 buffer, was re-warmed at 37° C. for 5 minutes. The reaction was initiated with NADPH solution which was at 1 mM final concentration, and carried out for 5 minutes at 37° C. It was terminated by the addition of 3-fold volume of quench solution (1:1 acetonitrile:methanol with 0.1% formic acid and the internal standard of tolbutamide). The sample was vortexed, centrifuged at 4,000 rpm for 15 min at 4° C. The incubation in the presence of vehicle (0.02% DMSO and 0.5% acetonitrile) was used as the enzyme activity control. The analyses of metabolite 6α-hydroxypaclitaxel in supernatant was performed with LC-MS/MS method (Sciex API 4500 Qtrap coupled to a Shimadzu LC-20AD HPLC).
The CYP enzyme activity was determined based on the formation of 6a-hydroxypaclitaxel metabolite. The % inhibition was calculated using this equation: % Inhibition=100×(1−Ainactivator/Avehicle), where Ainactivator is the CYP enzyme activity in the presence of test compound, and Avehicle is the CYP activity in the presence of vehicle.

CCN([C@H]1CCC2=Cc3c(cnn3-c3ccc(F)cc3)C[C@]2(C(=O)c2cc(C(F)(F)F)ccn2)C1)S(=O)(=O)c1ccn(C)n1 [Example 155, N-ethyl-N-((4aS,6S)-1-(4-fluorophenyl)-4a-(4-(trifluoromethyl)picolinoyl)-4,4a,5,6,7,8-hexahydro-1H-benzo[f]indazol-6-yl)-1-methyl-1H-pyrazole-3-sulfonamide]
IC50 [1]: ≤ 100 nM | inhibition at 5 min [2]: 25 to 50%

CN([C@H]1CCC2=Cc3c(cnn3-c3ccc(F)cc3)C[C@]2(C(=O)c2cc(C(F)(F)F)ccn2)C1)S(=O)(=O)c1ccnn1C [Example 156, N-((4aS,6S)-1-(4-fluorophenyl)-4a-(4-(trifluoromethyl)picolinoyl)-4,4a,5,6,7,8-hexahydro-1H-benzo[f]indazol-6-yl)-N,1-dimethyl-1H-pyrazole-5-sulfonamide]
IC50 [1]: ≤ 100 nM | inhibition at 5 min [2]: 75 to 90%

Cn1ccc(S(=O)(=O)N(C2CC2)[C@H]2CCC3=Cc4c(cnn4-c4ccc(F)cc4)C[C@]3(C(=O)c3ncc(C4CC4)s3)C2)n1 [Example 160, N-cyclopropyl-N-((4aS,6S)-4a-(5-cyclopropylthiazole-2-carbonyl)-1-(4-fluorophenyl)-4,4a,5,6,7,8-hexahydro-1H-benzo[f]indazol-6-yl)-1-methyl-1H-pyrazole-3-sulfonamide]
IC50 [1]: ≤ 100 nM | inhibition at 5 min [2]: 50 to 75%

Cn1ccc(S(=O)(=O)N(C2CC2)[C@H]2CCC3=Cc4c(cnn4-c4ccc(F)cc4)C[C@]3(C(=O)c3ncc(C(F)(F)F)s3)C2)n1 [Example 164, N-cyclopropyl-N-((4aS,6S)-1-(4-fluorophenyl)-4a-(5 (trifluoromethyl)thiazole-2-carbonyl)-4,4a,5,6,7,8-hexahydro-1H-benzo[f]indazol-6-yl)-1-methyl-1H-pyrazole-3-sulfonamide]
IC50 [1]: ≤ 100 nM | inhibition at 5 min [2]: 50 to 75%

CCN([C@H]1CCC2=Cc3c(cnn3-c3ccc(F)cc3)C[C@]2(C(=O)c2cc(C(F)(F)F)ccn2)C1)S(=O)(=O)c1cnn(C(F)F)c1 [Example 166, 1-(difluoromethyl)-N-ethyl-N-((4aS,6S)-1-(4-fluorophenyl)-4a-(4-(trifluoromethyl)picolinoyl)-4,4a,5,6,7,8-hexahydro-1H-benzo[f]indazol-6-yl)-1H-pyrazole-4-sulfonamide]
IC50 [1]: ≤ 100 nM | inhibition at 5 min [2]: 25 to 50%

CN([C@H]1CCC2=Cc3c(cnn3-c3ccc(F)cc3)C[C@]2(C(=O)c2cc(C(F)(F)F)ccn2)C1)S(=O)(=O)c1cn(C)nn1 [Example 170, N-((4aS,6S)-1-(4-fluorophenyl)-4a-(4-(trifluoromethyl)picolinoyl)-4,4a,5,6,7,8-hexahydro-1H-benzo[f]indazol-6-yl)-N,1-dimethyl-1H-1,2,3-triazole-4-sulfonamide]
IC50 [1]: ≤ 100 nM | inhibition at 5 min [2]: ≤ 25%

Cn1cc(S(=O)(=O)N(C2CC2)[C@H]2CCC3=Cc4c(cnn4-c4ccc(F)cc4)C[C@]3(C(=O)c3ncc(C(F)(F)F)s3)C2)cn1 [Example 176, N-cyclopropyl-N-((4aS,6S)-1-(4-fluorophenyl)-4a-(5 (trifluoromethyl)thiazole-2-carbonyl)-4,4a,5,6,7,8-hexahydro-1H-benzo[f]indazol-6-yl)-1-methyl-1H-pyrazole-4-sulfonamide]
IC50 [1]: ≤ 100 nM | inhibition at 5 min [2]: 25 to 50%

Cn1ccc(S(=O)(=O)N(CC2CC2)[C@H]2CCC3=Cc4c(cnn4-c4ccc(F)cc4)C[C@]3(C(=O)c3cc(C(F)(F)F)ccn3)C2)n1 [Example 178, N-(cyclopropylmethyl)-N-((4aS,6S)-1-(4-fluorophenyl)-4a-(4-(trifluoromethyl)picolinoyl)-4,4a,5,6,7,8-hexahydro-1H-benzo[f]indazol-6-yl)-1-methyl-1H-pyrazole-3-sulfonamide]
IC50 [1]: ≤ 100 nM | inhibition at 5 min [2]: 25 to 50%

CC(C)N([C@H]1CCC2=Cc3c(cnn3-c3ccc(F)cc3)C[C@]2(C(=O)c2ncc(C(F)(F)F)s2)C1)S(=O)(=O)c1ccn(C)n1 [Example 182, N-((4aS,6S)-1-(4-fluorophenyl)-4a-(5-(trifluoromethyl)thiazole-2-carbonyl)-4,4a,5,6,7,8-hexahydro-1H-benzo[f]indazol-6-yl)-N-isopropyl-1-methyl-1H-pyrazole-3-sulfonamide]
IC50 [1]: ≤ 100 nM | inhibition at 5 min [2]: 50 to 75%

Cn1ncc(S(=O)(=O)N(C2CC2)[C@H]2CCC3=Cc4c(cnn4-c4ccc(F)cc4)C[C@]3(C(=O)c3ncc(C(F)(F)F)s3)C2)n1 [Example 183, N-cyclopropyl-N-((4aS,6S)-1-(4-fluorophenyl)-4a-(5 (trifluoromethyl)thiazole-2-carbonyl)-4,4a,5,6,7,8-hexahydro-1H-benzo[f]indazol-6-yl)-2-methyl-2H-1,2,3-triazole-4-sulfonamide]
IC50 [1]: ≤ 100 nM | inhibition at 5 min [2]: 25 to 50%

Cn1ccc(S(=O)(=O)N(CC(F)(F)F)[C@H]2CCC3=Cc4c(cnn4-c4ccc(F)cc4)C[C@]3(C(=O)c3ncc(C(F)(F)F)s3)C2)n1 [Example 184, N-((4aS,6S)-1-(4-fluorophenyl)-4a-(5-(trifluoromethyl)thiazole-2-carbonyl)-4,4a,5,6,7,8-hexahydro-1H-benzo[f]indazol-6-yl)-1-methyl-N-(2,2,2-trifluoroethyl)-1H-pyrazole-3-sulfonamide]
IC50 [1]: ≤ 100 nM | inhibition at 5 min [2]: 25 to 50%

Cn1ccc(S(=O)(=O)N(CC(C)(C)O)[C@H]2CCC3=Cc4c(cnn4-c4ccc(F)cc4)C[C@]3(C(=O)c3ncc(C(F)(F)F)s3)C2)n1 [Example 189, N-((4aS,6S)-1-(4-fluorophenyl)-4a-(5-(trifluoromethyl)thiazole-2-carbonyl)-4,4a,5,6,7,8-hexahydro-1H-benzo[f]indazol-6-yl)-N-(2-hydroxy-2-methylpropyl)-1-methyl-1H-pyrazole-3-sulfonamide]
IC50 [1]: ≤ 100 nM | inhibition at 5 min [2]: 50 to 75%

CC(C)N([C@H]1CCC2=Cc3c(cnn3-c3ccc(F)cc3)C[C@]2(C(=O)c2ncc(C(F)(F)F)s2)C1)S(=O)(=O)c1cnn(C)c1 [Example 191, N-((4aS,6S)-1-(4-fluorophenyl)-4a-(5-(trifluoromethyl)thiazole-2-carbonyl)-4,4a,5,6,7,8-hexahydro-1H-benzo[f]indazol-6-yl)-N-isopropyl-1-methyl-1H-pyrazole-4-sulfonamide]
IC50 [1]: ≤ 100 nM | inhibition at 5 min [2]: 25 to 50%

CC(C)N([C@H]1CCC2=Cc3c(cnn3-c3ccc(F)cc3)C[C@]2(C(=O)c2cc(C(F)(F)F)ccn2)C1)S(=O)(=O)c1cnn(C)c1 [Example 193, N-((4aS,6S)-1-(4-fluorophenyl)-4a-(4-(trifluoromethyl)picolinoyl)-4,4a,5,6,7,8-hexahydro-1H-benzo[f]indazol-6-yl)-N-isopropyl-1-methyl-1H-pyrazole-4-sulfonamide]
IC50 [1]: ≤ 100 nM | inhibition at 5 min [2]: 50 to 75%
